# Results reported in US6737383B1, “Herbicidal oxadiazolidines” (priority 1999, dated 2004).
# Legend:
# giant foxtail = experiment: Test B pre/postemergence giant foxtail; type: in vivo, Setaria faberii
# Summary of the method: (§1)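 Test chemicals in a non-phytotoxic solvent mixture with surfactant were sprayed preemergence onto planted seeds and postemergence onto plants 2 to 18 cm tall (1- to 4-leaf stage). After twelve to sixteen days in a greenhouse, injury was visually rated against untreated controls from 0 (no effect) to 10 (complete control).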
# rice = experiment: Test B flood test rice; type: in vivo, Oryza sativa
# Summary of the method: (§2)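 Plants were grown to the 2-leaf stage before treatment with test chemical, then held in a greenhouse for twelve to sixteen days. Injury was visually rated against untreated controls on a 0–10 scale, where 0 is no effect and 10 is complete control.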
# duck salad = experiment: Test B flood test duck salad; type: in vivo, Heteranthera limosa
# Summary of the method: as §2
# wild oat = experiment: Test B pre/postemergence wild oat; type: in vivo, Avena fatua
# Summary of the method: as §1
# corn = experiment: Test B pre/postemergence corn; type: in vivo, Zea mays
# Summary of the method: as §1
# velvetleaf = experiment: Test B pre/postemergence velvetleaf; type: in vivo, Abutilon theophrasti
# Summary of the method: as §1
# bamyardgrass = experiment: Test B flood test barnyardgrass; type: in vivo, Echinochloa crus-galli
# Summary of the method: as §2
# surinam grass = experiment: Test B pre/postemergence surinam grass; type: in vivo, Brachiaria decumbens
# Summary of the method: as §1
# wheat = experiment: Test B pre/postemergence wheat; type: in vivo, Triticum aestivum
# Summary of the method: as §1
# crabgrass = experiment: Test B pre/postemergence crabgrass; type: in vivo, Digitaria sanguinalis
# Summary of the method: as §1
# blackgrass = experiment: Test B pre/postemergence blackgrass; type: in vivo, Alopecurus myosuroides
# Summary of the method: as §1
# morningglory = experiment: Test B pre/postemergence morningglory; type: in vivo, Ipomoea hederacea
# Summary of the method: as §1
# purple nutsedge = experiment: Test B pre/postemergence purple nutsedge; type: in vivo, Cyperus rotundus
# Summary of the method: as §1
# bedstraw = experiment: Test B pre/postemergence bedstraw; type: in vivo, Galium aparine; details: Preemergence, Rate 62 g/ha; scale 0 to 10 (0 no effect, 10 complete control)
# Summary of the method: as §1
# smallflower flatsedge = experiment: Test B flood test smallflower flatsedge; type: in vivo, Cyperus difformis
# Summary of the method: as §2
# cocklebur = experiment: Test B pre/postemergence cocklebur; type: in vivo, Xanthium strumarium
# Summary of the method: as §1
# [1] = Postemergence, Rate 125 g/ha, scale 0 to 10, 0 is no effect, 10 is complete control
# [2] = Postemergence, Rate 250 g/ha, scale 0 to 10, 0 is no effect, 10 is complete control
# [3] = Postemergence, Rate 500 g/ha, scale of 0 to 10 where 0 is no effect and 10 is complete control
# [4] = Preemergence, Rate 62 g/ha, scale 0 to 10 (0 no effect, 10 complete control)
# [5] = Preemergence, Rate 125 g/ha, scale of 0 to 10 where 0 is no effect and 10 is complete control
# [6] = Preemergence, Rate 250 g/ha, scale of 0 to 10 where 0 is no effect and 10 is complete control
# [7] = Preemergence, Rate 500 g/ha, scale of 0 to 10 where 0 is no effect and 10 is complete control
# [8] = Rate 62 g/ha, Postemergence, scale of 0 to 10 where 0 is no effect and 10 is complete control
# [9] = Rate 62 g/ha, flood test species, Pre-emergence, visual evaluation after twelve to sixteen days
# [10] = Rate 125 g/ha, under heading Pre-emergence, flood test species, visual evaluation after twelve to sixteen days
# [11] = Rate 250 g/ha, Pre-emergence, flood-test species, scale 0 to 10, 0 is no effect, 10 is complete control
# [12] = Rate 500 g/ha, Pre-emergence, flood test species, scale 0 to 10 (0 no effect, 10 complete control)
compound,measurement,setting,value
CC(C)N(C(=O)n1oc(=O)n(C(C)Cl)c1=O)c1ccc(F)cc1 (centres unmarked) [Compound 393],"Plant response rating, Giant foxtail",giant foxtail; [1],8
same,"Plant response rating, Giant foxtail",giant foxtail; [2],9
same,Giant foxtail plant response rating,giant foxtail; [3],9
same,"Plant response rating, Giant foxtail",giant foxtail; [4],1
same,"Plant response rating, Giant foxtail",giant foxtail; [5],9
same,Giant foxtail plant response rating,giant foxtail; [6],10
same,Giant foxtail plant response rating,giant foxtail; [7],10
same,Giant foxtail plant response rating,giant foxtail; [8],5
same,"Plant response rating, Rice (0 to 10 scale, 0 is no effect, 10 is complete control)",rice; [9],0
same,"Rice plant response rating (0 to 10 scale, 0 is no effect, 10 is complete control)",rice; [10],0
same,Rice plant response rating,rice; [11],0
same,Rice plant response rating,rice; [12],0
same,"Plant response rating, Ducksalad (0 to 10 scale, 0 is no effect, 10 is complete control)",duck salad; [9],0
same,"Ducksalad plant response rating (0 to 10 scale, 0 is no effect, 10 is complete control)",duck salad; [10],0
same,Ducksalad plant response rating,duck salad; [11],0
same,Ducksalad plant response rating,duck salad; [12],0
same,Wild oats plant response rating,wild oat; [3],0
same,"Plant response rating, Wild oats",wild oat; [4],0
same,"Plant response rating, Wild oats",wild oat; [5],0
same,Wild oats plant response rating,wild oat; [6],0
same,Wild oats plant response rating,wild oat; [7],3
same,Wild oats plant response rating,wild oat; [8],0
same,"Plant response rating, Corn",corn; [1],0
same,"Plant response rating, Corn",corn; [2],0
same,Corn plant response rating,corn; [3],0
same,"Plant response rating, Corn",corn; [4],0
same,"Plant response rating, Corn",corn; [5],0
same,Corn plant response rating,corn; [6],0
same,Corn plant response rating,corn; [7],0
same,Corn plant response rating,corn; [8],0
same,"Plant response rating, Velvetleaf",velvetleaf; [2],0
same,Velvetleaf plant response rating,velvetleaf; [3],0
same,"Plant response rating, Velvetleaf",velvetleaf; [4],0
same,"Plant response rating, Velvetleaf",velvetleaf; [5],0
same,Velvetleaf plant response rating,velvetleaf; [6],0
same,Velvetleaf plant response rating,velvetleaf; [7],0
same,Velvetleaf plant response rating,velvetleaf; [8],0
same,"Plant response rating, Barnyardgrass (0 to 10 scale, 0 is no effect, 10 is complete control)",bamyardgrass; [9],0
same,"Barnyardgrass plant response rating (0 to 10 scale, 0 is no effect, 10 is complete control)",bamyardgrass; [10],0
same,Barnyardgrass plant response rating,bamyardgrass; [11],0
same,Barnyardgrass plant response rating,bamyardgrass; [12],0
same,"Plant response rating, B. signalgrass",surinam grass; [1],0
same,"Plant response rating, B. signalgrass",surinam grass; [2],0
same,B. signalgrass plant response rating,surinam grass; [3],0
same,"Plant response rating, B. signalgrass",surinam grass; [4],0
same,"Plant response rating, B. signalgrass",surinam grass; [5],0
same,B. signalgrass plant response rating,surinam grass; [6],0
same,B. signalgrass plant response rating,surinam grass; [7],2
same,B. signalgrass plant response rating,surinam grass; [8],0
same,Wheat plant response rating,wheat; [3],0
same,"Plant response rating, Wheat",wheat; [4],0
same,"Plant response rating, Wheat",wheat; [5],0
same,Wheat plant response rating,wheat; [6],0
same,Wheat plant response rating,wheat; [7],0
same,Wheat plant response rating,wheat; [8],0
same,"Plant response rating, Crabgrass",crabgrass; [1],1
same,"Plant response rating, Crabgrass",crabgrass; [2],5
same,Crabgrass plant response rating,crabgrass; [3],8
same,"Plant response rating, Crabgrass",crabgrass; [4],0
same,"Plant response rating, Crabgrass",crabgrass; [5],2
same,Crabgrass plant response rating,crabgrass; [6],3
same,Crabgrass plant response rating,crabgrass; [7],8
same,Crabgrass plant response rating,crabgrass; [8],0
same,"Plant response rating, Blackgrass",blackgrass; [1],2
same,"Plant response rating, Blackgrass",blackgrass; [2],3
same,Blackgrass plant response rating,blackgrass; [3],8
same,"Plant response rating, Blackgrass",blackgrass; [4],0
same,"Plant response rating, Blackgrass",blackgrass; [5],0
same,Blackgrass plant response rating,blackgrass; [6],0
same,Blackgrass plant response rating,blackgrass; [7],3
same,Blackgrass plant response rating,blackgrass; [8],0
same,"Plant response rating, Morningglory",morningglory; [2],0
same,Morningglory plant response rating,morningglory; [3],0
same,"Plant response rating, Morningglory",morningglory; [4],0
same,"Plant response rating, Morningglory",morningglory; [5],0
same,Morningglory plant response rating,morningglory; [6],0
same,Morningglory plant response rating,morningglory; [7],2
same,Morningglory plant response rating,morningglory; [8],0
same,"Plant response rating, Nutsedge",purple nutsedge; [2],0
same,Nutsedge plant response rating,purple nutsedge; [3],0
same,"Plant response rating, Nutsedge",purple nutsedge; [4],0
same,"Plant response rating, Nutsedge",purple nutsedge; [5],0
same,Nutsedge plant response rating,purple nutsedge; [6],0
same,Nutsedge plant response rating,purple nutsedge; [7],0
same,Nutsedge plant response rating,purple nutsedge; [8],0
same,"Plant response rating, Bedstraw",bedstraw,0
same,"Plant response rating, S. Flatsedge (0 to 10 scale, 0 is no effect, 10 is complete control)",smallflower flatsedge; [9],0
same,"S. Flatsedge plant response rating (0 to 10 scale, 0 is no effect, 10 is complete control)",smallflower flatsedge; [10],0
same,S. Flatsedge plant response rating,smallflower flatsedge; [11],0
same,S. Flatsedge plant response rating,smallflower flatsedge; [12],0
same,"Plant response rating, Cocklebur",cocklebur; [1],0
same,"Plant response rating, Cocklebur",cocklebur; [2],0
same,Cocklebur plant response rating,cocklebur; [3],0
same,"Plant response rating, Cocklebur",cocklebur; [4],0
same,"Plant response rating, Cocklebur",cocklebur; [5],0
same,Cocklebur plant response rating,cocklebur; [6],0
same,Cocklebur plant response rating,cocklebur; [7],0
same,Cocklebur plant response rating,cocklebur; [8],0
